{"source": "patent US20240239863A1", "about": "“GIP RECEPTOR AGONIST AND USE THEREOF” (HANGZHOU ZHONGMEIHUADONG PHARMACEUTICAL CO., LTD., priority 2022, published 2024)", "key": {"hGLP-1R": {"target": "hGLP-1R (Homo sapiens, UniProt P43220)", "sequence (P43220 24-463)": "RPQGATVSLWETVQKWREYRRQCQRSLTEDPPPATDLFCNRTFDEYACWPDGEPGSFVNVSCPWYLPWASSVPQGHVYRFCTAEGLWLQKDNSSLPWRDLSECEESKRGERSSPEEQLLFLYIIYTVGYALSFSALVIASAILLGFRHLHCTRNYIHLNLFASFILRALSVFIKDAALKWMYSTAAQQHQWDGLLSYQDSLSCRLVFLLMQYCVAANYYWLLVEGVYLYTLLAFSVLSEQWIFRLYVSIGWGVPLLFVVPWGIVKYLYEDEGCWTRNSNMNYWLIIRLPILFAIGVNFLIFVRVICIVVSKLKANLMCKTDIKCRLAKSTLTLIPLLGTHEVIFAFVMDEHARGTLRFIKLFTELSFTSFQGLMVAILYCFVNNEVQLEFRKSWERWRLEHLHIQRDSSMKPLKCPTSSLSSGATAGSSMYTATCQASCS", "assay": "Cell agonistic activity at GLP-1 receptor (Example 7)", "format": "cell-based", "conditions": "read-out: hGLP-1R EC50"}, "hGIPR": {"target": "T1, hGIPR (Homo sapiens, UniProt P48546)", "T1 construct": "expressed in transfected cells; host or cells: HEK293, stably transduced", "T1 sequence (P48546 22-466)": "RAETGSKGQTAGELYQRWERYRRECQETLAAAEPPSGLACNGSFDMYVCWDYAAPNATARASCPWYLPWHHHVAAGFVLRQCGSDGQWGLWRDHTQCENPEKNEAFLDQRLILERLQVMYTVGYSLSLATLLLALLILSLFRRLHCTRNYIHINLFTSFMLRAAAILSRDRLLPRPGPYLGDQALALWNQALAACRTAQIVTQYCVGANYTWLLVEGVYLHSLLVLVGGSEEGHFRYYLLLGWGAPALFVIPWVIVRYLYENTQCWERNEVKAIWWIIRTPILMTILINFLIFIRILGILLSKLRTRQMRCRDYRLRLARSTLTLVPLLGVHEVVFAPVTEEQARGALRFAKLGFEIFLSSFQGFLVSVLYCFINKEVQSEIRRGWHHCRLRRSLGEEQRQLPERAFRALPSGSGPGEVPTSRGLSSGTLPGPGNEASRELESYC", "assay": "HTRF cAMP cell agonistic activity assay, HEK293 stably expressing GIPR (Example 7)", "format": "cell-based", "protocol": "The agonistic activity of the compounds on the receptor was determined using the HTRF kit (purchased from Perkin Elmer). All reagents in the kit were allowed to equilibrate to room temperature before use. A 1× Stimulation Buffer was formulated according to the instruction in the kit for use. […] GIPR cells were digested with trypsin, centrifuged to remove the culture medium. The cells were resuspended in the 1× Stimulation Buffer. After being counted, 9 μL cell dilutions were inoculated into a 384-well plate at 1000 cells/well. 1 μL the 10× compound diluted in step 2 was taken and added to the corresponding test well, wherein 1 μL the 10× initial concentration positive compound was added to the PC hole (Min value), and 1 μL the 10×DMSO buffer (1%) was added to the VC hole (Max value). The plate was centrifuged and incubated at 37 °C for 30 minutes. Eu-cAMP was diluted with Detection buffer to a working concentration, and the diluent was added into the corresponding test well at 5 μL/well. ULight-anti-Camp was diluted with Detection buffer to a working concentration, and the diluent was added into the corresponding test well at 5 μL/well. After being centrifuged, the plate was incubated at room temperature for 1 hour. […] The nonlinear regression method of GraphPad Prism software was used for curve fitting and EC50 calculation."}, "human GLP-1 receptor": {"target": "human GLP-1 receptor (human, UniProt P43220 24-463)", "sequence (P43220 24-463)": "as the sequence (P43220 24-463) above", "assay": "cell-based or functional assay"}, "[1]": {"target": "human GIP receptor (glucose-dependent insulinotropic peptide receptor, GIPR) (human) (UniProt P48546)", "assay": "cell-based or functional assay"}, "[2]": {"assay": "Fasting blood glucose in STZ type 2 diabetic mice after 7 days (Example 9)", "format": "in vivo", "conditions": "for Fasting Blood Glucose Value, 0 day: 0 day (baseline)", "description": "Male mice were allowed to adapt to new environment for 1 week before treatment. The mice were divided into several groups (n=6-8/group). The individual was screened and divided into groups based on body weight and fasting blood glucose. Grouping was done by screening in a balanced manner, so as to exclude individuals that were too large or too small. A blank buffer or a test compound was subcutaneously administrated to the animals once a day. The individuals in the body weight group were weighted daily before administration, while the individuals in the fasting blood glucose group (fasting for 4 hours) were measured for their blood glucose 7 days after administration."}, "[3]": {"assay": "Body weight of DIO mice, high dosage, 21 days (Example 12)", "format": "in vivo", "conditions": "30 nmol/kg s.c. QD", "description": "72 diet-induced obese (DIO) mice were weighed. (Screening and Grouping) When the average weight of the mice is about 40-45 g, they are randomly assigned to Groups G2-G11 based on the body weights of the mice, with 8 mice in each group. Eight C57BL/6 mice fed with normal diet were assigned to Group G1. Each mouse in all groups was housed in a separate cage for 2-3 days to adapt to environment before grouping. During this period, the mice were adaptively caught and administrated with blank solvent (propylene glycol: 14.0 mg/mL and disodium hydrogen phosphate: 1.132 mg/mL, pH 7.4) daily. The day of grouping was Day 0."}, "[4]": {"assay": "Body weight of DIO mice, 25 days, different administration ratios (Example 11)", "format": "in vivo", "conditions": "30 nmol/kg s.c. QD, Day 25", "description": "(§1) […] high-fat diet-induced obese (DIO) mice were weighed. When the average weight of the mice is about 40-45 g, they are randomly assigned to Groups G2-G11 based on the body weight of the mice, with 8 mice in each group. Eight C57BL/6 mice fed with normal diet were assigned to Group G1. Each mouse in all groups was housed in a separate cage for 2-3 days to adapt to environment before grouping. During this period, the mice were adaptively caught and administrated with blank solvent daily. The day of grouping was Day 0. The Vehicle group was administrated with blank solvent (propylene glycol: 14.0 mg/mL and disodium hydrogen phosphate: 1.132 mg/mL) at pH 7.4; s.c. means subcutaneous injection; the frequency of administration QD means once a day. Such expressions may be applied to the following Examples.\n(§2) The animals were weighed before grouping (i.e. before the first administration) and every 3 days after grouping. At the end of the experiment (Day 25), the mice were fasted for 4 hours. The livers of all mice in Groups G1-G8 were collected and weighed. About 20 mg of the livers were homogenized. The homogenate was taken to measure total cholesterol (TC) and […] (TG)."}, "[5]": {"assay": "Body weight of DIO mice after 28 days of administration (Example 10)", "format": "in vivo, DIO male mice", "conditions": "2 nmol/kg s.c. QD", "protocol": "Eight or more C57BL/6J male mice at an age of 16 to 18 weeks and fifty-six or more DIO male mice with obesity induced by high-fat feed at an age of 16 to 18 weeks were selected. After entering the animal facility, all mice were adaptively fed for 3 days or more. They were required to adapt for 3 days before grouping. All mice were measured for body weight, body fat ratio and fasting blood glucose. Fifty-six DIO mice were randomly grouped primarily based on body weight and fasting blood glucose and secondarily based on body fat ratio. 8 C57BL/6J mice of close weekly age were assigned into the healthy control group. Each mouse in all groups was housed in a separate cage for 2-3 days to adapt to environment before grouping. During the period, the mice were adaptively caught and administrated with blank solvent daily. The day of grouping was Day 0, and the administration was continued for 28 days. […]\nThe body weight of each mouse was recorded every day according to the frequency of administration. Postprandial blood glucose was measured every 3 days, fasting blood glucose was measured every 7 days, and IPGTT (Intraperitoneal Glucose Tolerance Tests) was conducted once before the end point. […]"}, "[6]": {"assay": "Liver total cholesterol (TC) and triglyceride (TG) in DIO mice (Example 11)", "format": "in vivo", "conditions": "30 nmol/kg s.c. QD, Day 25, fasted 4 hours", "description": "as §1, §2"}, "[7]": {"parameters": "species or system DIO mice", "conditions": "mouse, in vivo", "description": "as §1\nBased on the assay in Example 11, the cumulative water intake of the mice was also statistically calculated and compared with the water intake of the mice in the Tirzepatide treatment group."}, "[8]": {"conditions": "2.4 nmol/kg s.c. once a day, 7 days"}, "[9]": {"conditions": "14.4 nmol/kg s.c. once a day, 7 days"}}, "note": "Starred links: 1 amine or outer side, 2 acyl side, 3 side chain; linkers in the order of their positions; H or OH if unused. Non-standard residues stand in square brackets, D forms with d. Residues, ends and D or L forms follow the SMILES beside them. Groups on a side chain read outwards from the residue. *: point of attachment. d(γGlu) = O=C(O)[C@@H](CCC(=O)[*:2])N[*:1]; C18 diacid = O=C(O)CCCCCCCCCCCCCCCCC(=O)*; AEEA = NCCOCCOCC(=O)O; Aib = CC(C)(N)C(=O)O", "data": [{"compound": "CC[C@H](C)[C@H](NC(=O)[C@H](CO)NC(=O)[C@H](Cc1ccc(O)cc1)NC(=O)[C@H](CC(=O)O)NC(=O)[C@H](CO)NC(=O)[C@@H](NC(=O)[C@H](Cc1ccccc1)NC(=O)[C@@H](NC(=O)CNC(=O)[C@H](CCC(=O)O)NC(=O)C(C)(C)NC(=O)[C@@H](N)Cc1ccc(O)cc1)[C@@H](C)O)[C@@H](C)CC)C(=O)N[C@@H](C)C(=O)N[C@@H](CC(C)C)C(=O)N[C@@H](CC(=O)O)C(=O)N[C@@H](CCCNC(=N)N)C(=O)N[C@H](C(=O)N[C@@H](Cc1c[nH]cn1)C(=O)N[C@@H](CCC(N)=O)C(=O)N[C@@H](CCC(N)=O)C(=O)N[C@@H](CC(=O)O)C(=O)N[C@@H](Cc1ccccc1)C(=O)N[C@H](C(=O)N[C@@H](CC(N)=O)C(=O)N[C@@H](Cc1c[nH]c2ccccc12)C(=O)N[C@@H](CC(C)C)C(=O)N[C@@H](CC(C)C)C(=O)N[C@@H](C)C(=O)N[C@@H](CCC(N)=O)C(=O)N[C@@H](CCCCNC(=O)COCCOCCNC(=O)COCCOCCNC(=O)CC[C@@H](NC(=O)CCCCCCCCCCCCCCCCC(=O)O)C(=O)O)C(=O)NCC(=O)O)C(C)C)[C@@H](C)CC", "note": "[Peptide 14, N-{ε-30}-18-{[(23R)-23-carboxyl-2,11,20-trioxo-10,19-diaza-4,7,13,16-tetraoxatricosyl-23-yl]amino}-18-oxooctadecanoic acid acetyl-[Aib2, L14, R16]-hGIP(1-31)] (H-Y[Aib]EGTFISDYSIALDRIHQQDFVNWLLAQK([AEEA-AEEA-d(γGlu)-C18 diacid])G-OH)", "values": [{"measurement": "EC50", "setting": "hGLP-1R", "value": "> 100", "unit": "pM"}, {"measurement": "EC50", "setting": "hGIPR", "value": 3.5, "unit": "pM"}]}, {"compound": "hGLP-1 (7-37) (from UniProt P01275 21-180) (ligand)", "values": [{"measurement": "EC50(pM), cell agonistic activity", "setting": "human GLP-1 receptor", "value": 7.01, "unit": "pM"}, {"measurement": "EC50(pM), cell agonistic activity (cAMP, HTRF)", "setting": "[1]", "value": "> 100", "unit": "pM"}]}, {"compound": "N^6,26-{18-[N-(17-carboxylheptadecanoyl)-L-γ-glutamyl]-10-oxo-3,6,12,15-tetraoxa-9,18-diazaoctadecanoyl}-[8-(2-amino-2-propionic acid), 34-L-arginine] human glucagon-like peptide 1 (7-37) [GLP-1 Analog]", "values": [{"measurement": "Fasting Blood Glucose Value, 0 day", "setting": "[2]; 2.4 nmol/kg s.c. once a day", "value": "27.17 ± 2.01", "unit": "mmol/L"}, {"measurement": "Decrease of Blood Glucose, 7 days", "setting": "[2]; [8]", "value": "27.10 ± 13.55", "unit": "%"}, {"measurement": "Fasting Blood Glucose Value, 7 days", "setting": "[2]; [8]", "value": "19.82 ± 3.79", "unit": "mmol/L"}, {"measurement": "Fasting Blood Glucose Value, 0 day", "setting": "[2]; 14.4 nmol/kg s.c. once a day", "value": "26.96 ± 1.60", "unit": "mmol/L"}, {"measurement": "Decrease of Blood Glucose, 7 days", "setting": "[2]; [9]", "value": "49.30 ± 17.03", "unit": "%"}, {"measurement": "Fasting Blood Glucose Value, 7 days", "setting": "[2]; [9]", "value": "13.66 ± 4.94", "unit": "mmol/L"}, {"measurement": "blood glucose values, single drug treatment", "setting": "[2]; 2.4 and 14.4 nmol/kg, 7 days", "value": "decrease in blood glucose values"}, {"measurement": "Body Weight Reduction Percentage at Day 21", "setting": "[3]", "value": "24.7 ± 1.3", "unit": "%"}, {"measurement": "Body Weight", "setting": "[3]; Day 21", "value": "33.1 ± 0.7", "unit": "g"}, {"measurement": "Body Weight", "setting": "[4]", "value": "31.1 ± 0.7", "unit": "g"}, {"measurement": "Body Weight", "setting": "[4]; listed as GLP-1 Analogs", "value": "31.1 ± 0.7", "unit": "g"}, {"measurement": "Weight", "setting": "[5]", "value": "40.2 ± 1.5", "unit": "g"}, {"measurement": "Weight Change", "setting": "[5]", "value": "−3.2", "unit": "%"}, {"measurement": "TC", "setting": "[6]", "value": "4.89 ± 0.12", "unit": "mM"}, {"measurement": "TG", "setting": "[6]", "value": "0.91 ± 0.03", "unit": "mM"}]}, {"compound": "CC[C@H](C)[C@H](NC(=O)[C@H](CC(C)C)NC(=O)[C@H](Cc1c[nH]c2ccccc12)NC(=O)[C@H](CCC(N)=O)NC(=O)[C@@H](NC(=O)[C@H](Cc1ccccc1)NC(=O)[C@H](C)NC(=O)[C@H](CCCCNC(=O)COCCOCCNC(=O)COCCOCCNC(=O)CC[C@H](NC(=O)CCCCCCCCCCCCCCCCCCC(=O)O)C(=O)O)NC(=O)[C@H](CCC(N)=O)NC(=O)[C@H](C)NC(=O)[C@@H](NC(=O)[C@H](CCCCN)NC(=O)[C@H](CC(=O)O)NC(=O)[C@H](CC(C)C)NC(=O)C(C)(C)NC(=O)[C@@H](NC(=O)[C@H](CO)NC(=O)[C@H](Cc1ccc(O)cc1)NC(=O)[C@H](CC(=O)O)NC(=O)[C@H](CO)NC(=O)[C@@H](NC(=O)[C@H](Cc1ccccc1)NC(=O)[C@@H](NC(=O)CNC(=O)[C@H](CCC(=O)O)NC(=O)C(C)(C)NC(=O)[C@@H](N)Cc1ccc(O)cc1)[C@@H](C)O)[C@@H](C)O)[C@@H](C)CC)[C@@H](C)CC)C(C)C)C(=O)N[C@@H](C)C(=O)NCC(=O)NCC(=O)N1CCC[C@H]1C(=O)N[C@@H](CO)C(=O)N[C@@H](CO)C(=O)NCC(=O)N[C@@H](C)C(=O)N1CCC[C@H]1C(=O)N1CCC[C@H]1C(=O)N1CCC[C@H]1C(=O)N[C@@H](CO)C(N)=O", "note": "[Tirzepatide]", "values": [{"measurement": "water intake / adverse responses", "setting": "[7]", "value": "significantly inhibited"}]}]}
